Source: US10828317B2, “Method of treating bacterial infections” (priority 2016, dated 2020)
Read-outs that look alike come from different tables or passages of the source.

Tests used:
Citrobacter sp. EN0465 = assay: MIC; format: cell-based; details: Citrobacter, read-out: MIC
M. luteus EN0455 = assay: MIC; format: cell-based, Micrococcus luteus; details: Micrococcus luteus, read-out: MIC
A. baumannii EN016 = assay: MIC, WT; format: cell-based, Acinetobacter baumannii; details: Acinetobacter baumannii, read-out: MIC
K. pneumoniae EN0463 = assay: MIC; format: cell-based, Klebsiella pneumoniae; details: Klebsiella pneumoniae, read-out: MIC
S. sonnei APV00908 = assay: MIC and antibiogram; format: cell-based; details: Shigella sonnei, Table 22A
S. marescens EN0454 = assay: MIC; format: cell-based, Serratia marescens; details: Serratia, read-out: MIC
K. pneumoniae EN0144 = assay: MIC, MBL (VIM-1); format: cell-based; details: Klebsiella pneumoniae, EN0144, combination didanosine+trimethoprim+uridine, Table 20; read-out: MIC
E. coli EN003 = assay: microbe, parasite or virus in culture; format: cell-based, Escherichia coli; details: Escherichia coli, EN003, combination didanosine+trimethoprim+uridine, Table 10
P. mirabilis EN0457 = assay: MIC; format: cell-based, Proteus mirabilis; details: Proteus mirabilis, read-out: MIC
E. coli EN0235 = assay: microbe, parasite or virus in culture; format: cell-based; details: Escherichia coli
P. aeruginosa EN0459 = assay: MIC; format: cell-based, Pseudomonas aeruginosa; details: Pseudomonas aeruginosa, read-out: MIC
S. epidermidis EN0456 = assay: MIC; format: cell-based, Staphylococcus epidermidis; details: Staphylococcus epidermidis, read-out: MIC
S. aureus EN008 = assay: MIC, Gram-positive control; format: cell-based, Staphylococcus aureus; details: Staphylococcus aureus, read-out: MIC
E. aerogenes EN0461 = assay: MIC; format: cell-based, Enterobacter aerogenes; details: Klebsiella aerogenes, read-out: MIC
P. mirabilis ST19 EN0445 = assay: MIC; format: cell-based, Proteus mirabilis; details: Proteus mirabilis, read-out: MIC
K. pneumoniae EN0140 = assay: MIC, AmpC (DHA-1); format: cell-based; details: Klebsiella pneumoniae, EN0140, combination didanosine+trimethoprim+uridine, Table 20; read-out: MIC
S. flexneri APV00907 = assay: MIC and antibiogram; format: cell-based; details: Shigella flexneri, Table 22A
From the text: Inhibition of Heliobacter is important in view of increasing resistance and its association to gastric cancer.

P. aeruginosa EN014 = assay: MIC, WT; format: cell-based, Pseudomonas aeruginosa; details: Pseudomonas aeruginosa, EN014, Combination 1 AZT+trimethoprim+uridine, Table 16; read-out: MIC

O=c1ccn([C@@H]2O[C@H](CO)[C@@H](O)[C@H]2O)c(=O)[nH]1 [Uridine, uridine]
MIC (Citrobacter sp. EN0465; SP.EN0465, Combination 1 AZT+trimethoprim+uridine, Table 16): > 400 µg/mL | MIC (Citrobacter sp. EN0465; SP.EN0465, Combination 2 AZT+trimethoprim+uridine+thymidine, Table 16): > 400 µg/mL | MIC (Citrobacter sp. EN0465; SP.EN0465, combination AZT+trimethoprim+uridine, Table 6): > 1000 µg/mL | MIC (Citrobacter sp. EN0465; SP.EN0465, combination FdUrd+trimethoprim+uridine, Table 8): > 400 µg/mL | MIC (Citrobacter sp. EN0465; SP.EN0465, combination didanosine+trimethoprim+uridine, Table 10): > 400 µg/mL | MIC (M. luteus EN0455; EN0455, Combination 1 AZT+trimethoprim+uridine, Table 16): 200 µg/mL | MIC (M. luteus EN0455; EN0455, Combination 2 AZT+trimethoprim+uridine+thymidine, Table 16): > 400 µg/mL | MIC (M. luteus EN0455; EN0455, combination AZT+trimethoprim+uridine, Table 6): 500 µg/mL | MIC (M. luteus EN0455; EN0455, combination FdUrd+trimethoprim+uridine, Table 8): 200 µg/mL | MIC (M. luteus EN0455; EN0455, combination didanosine+trimethoprim+uridine, Table 10): 200 µg/mL | MIC (A. baumannii EN016; EN016, Combination 1 AZT+trimethoprim+uridine, Table 16): > 400 µg/mL | MIC (A. baumannii EN016; EN016, Combination 2 AZT+trimethoprim+uridine+thymidine, Table 16): > 400 µg/mL | MIC (A. baumannii EN016; EN016, combination AZT+trimethoprim+uridine, Table 6): > 1000 µg/mL | MIC (A. baumannii EN016; EN016, combination FdUrd+trimethoprim+uridine, Table 8): 400 µg/mL | MIC (A. baumannii EN016; EN016, combination didanosine+trimethoprim+uridine, Table 10): > 400 µg/mL | MIC (K. pneumoniae EN0463; EN0463, Combination 1 AZT+trimethoprim+uridine, Table 16): 12.5 µg/mL | MIC (K. pneumoniae EN0463; EN0463, combination AZT+trimethoprim+uridine, Table 6): 16 µg/mL | MIC (S. sonnei APV00908; APV00908, combination AZT+trimethoprim+uridine): 3 µg/mL | MIC (S. sonnei APV00908; APV00908, combination FdUrd+trimethoprim+uridine): > 400 µg/mL | MIC (S. marescens EN0454; EN0454, Combination 1 AZT+trimethoprim+uridine, Table 16): > 400 µg/mL | MIC (S. marescens EN0454; EN0454, Combination 2 AZT+trimethoprim+uridine+thymidine, Table 16): > 400 µg/mL | MIC (S. marescens EN0454; EN0454, combination didanosine+trimethoprim+uridine, Table 10): > 400 µg/mL | MIC (K. pneumoniae EN0144): > 400 µg/mL | MIC (E. coli EN003): 6 µg/mL | MIC (P. mirabilis EN0457; EN0457, Combination 1 AZT+trimethoprim+uridine, Table 16): 200 µg/mL | MIC (P. mirabilis EN0457; EN0457, Combination 2 AZT+trimethoprim+uridine+thymidine, Table 16): > 400 µg/mL | MIC (P. mirabilis EN0457; EN0457, combination AZT+trimethoprim+uridine, Table 6): 500 µg/mL | MIC (E. coli EN0235; EN0235, combination FdUrd+trimethoprim+uridine, Table 19): 6 µg/mL | MIC (E. coli EN0235; EN0235, combination didanosine+trimethoprim+uridine, Table 20): 13 µg/mL | MIC (P. aeruginosa EN0459; EN0459, Combination 1 AZT+trimethoprim+uridine, Table 16): > 400 µg/mL | MIC (P. aeruginosa EN0459; EN0459, Combination 2 AZT+trimethoprim+uridine+thymidine, Table 16): > 400 µg/mL | MIC (P. aeruginosa EN0459; EN0459, combination AZT+trimethoprim+uridine, Table 6): > 1000 µg/mL | MIC (P. aeruginosa EN0459; EN0459, combination FdUrd+trimethoprim+uridine, Table 8): > 400 µg/mL | MIC (P. aeruginosa EN0459; EN0459, combination didanosine+trimethoprim+uridine, Table 10): > 400 µg/mL | MIC (S. epidermidis EN0456; EN0456, Combination 1 AZT+trimethoprim+uridine, Table 16): 66.4 µg/mL | MIC (S. epidermidis EN0456; EN0456, Combination 2 AZT+trimethoprim+uridine+thymidine, Table 16): 200 µg/mL | MIC (S. epidermidis EN0456; EN0456, combination AZT+trimethoprim+uridine, Table 6): 16 µg/mL | MIC (S. epidermidis EN0456; EN0456, combination FdUrd+trimethoprim+uridine, Table 8): < 0.8 µg/mL | MIC (S. epidermidis EN0456; EN0456, combination didanosine+trimethoprim+uridine, Table 10): 6 µg/mL | MIC (S. aureus EN008; EN008, Combination 2 AZT+trimethoprim+uridine+thymidine, Table 16): > 400 µg/mL | MIC (S. aureus EN008; EN008, combination FdUrd+trimethoprim+uridine, Table 8): < 0.8 µg/mL | MIC (E. aerogenes EN0461; EN0461, Combination 2 AZT+trimethoprim+uridine+thymidine, Table 16): 200 µg/mL | MIC (E. aerogenes EN0461; EN0461, combination AZT+trimethoprim+uridine, Table 6): 60 µg/mL | MIC (P. mirabilis ST19 EN0445; ST19EN0445, Combination 2 AZT+trimethoprim+uridine+thymidine, Table 16): > 400 µg/mL | MIC (P. mirabilis ST19 EN0445; ST19EN0445, combination AZT+trimethoprim+uridine, Table 6): > 1000 µg/mL | MIC (K. pneumoniae EN0140): > 400 µg/mL | MIC (S. flexneri APV00907; APV00907, combination AZT+trimethoprim+uridine): 200 µg/mL | MIC (S. flexneri APV00907; APV00907, combination FdUrd+trimethoprim+uridine): > 400 µg/mL | MIC (P. aeruginosa EN014): > 400 µg/mL
